Entries after “also recorded” stand apart in the source; their conditions may differ.
Tests used:
SW1353 tumors = assay: Adjuvant chemotherapy in orthotopic chondrosarcoma xenograft model; format: in vivo, athymic nude mice (BALB/c nu/nu); details: mice, i.p., 2 mg/kg cisplatin and/or 20 mg/kg TC-S7009, twice weekly for four weeks
Text: FIG. 5G is a schematic diagram of combination chemotherapy with TC-S7009. Mice were intraperitoneally injected 8 times with DMSO, cisplatin, TC-S7009, or cisplatin plus TC-S7009, twice a week from two weeks following the orthotopic xenograft (n=5).
Mice and experimental systems. Female athymic nude mice (BALB/c nu/nu, 5 weeks old) were purchased from Daehan-Biolink Co. and housed in individually ventilated cages. Mice were maintained under pathogen-free conditions. Food and water were provided after their sterilization. For in vivo experiments, at least five mice per experimental condition were used. Animals were randomly allocated to each experimental group, and the treatment allocation was blinded. In the orthotopic injection model, SW1353 cells were trypsinized and resuspended in PBS after centrifugation. The number of cells was adjusted to 1×10^6 cells per 25 μl. For SW1353 cells that stably overexpressed eGFP or HIF-2α, cell number was adjusted to 1×10^5 cells per 25 μl. Cells were mixed with 25 μl of Geltrex (Thermo Fisher Scientific, Geltrex™ LDEV-Free Reduced Growth Factor Basement Membrane Matrix). Before the procedure, mice were anesthetized. Skin was incised using a scalpel, and a single 0.35-mm diameter hole was drilled through the cartilage of the upper right tibia with the aid of sterile H-files (MANI, 28 mm #70). Subsequently, 10 μl of cell mixture was slowly injected with a 30-gauge microsyringe needle through the hole. The hole was sealed using surgical wax, and the surgery site was extensively rinsed with sterile PBS to wash out any spilled cell mixture. As the last step of the surgical procedure, the cutaneous wound was sutured. After the chosen experimental periods, mice were sacrificed, and total hindlimbs were dissected. For lung specimens, PBS was instilled through the trachea, and all specimens were processed for histomorphometric and immunohistochemical analysis. For the adjuvant chemotherapy studies, two weeks after the orthotopic injection of chondrosarcoma cells, mice were injected intraperitoneally with or without 2 mg/kg cisplatin in the presence or absence of 20 mg/kg TC-S7009 (Tocris) dissolved in Kolliphor EL (castor oil, 10% v/v, Sigma Aldrich, C5135). Vehicle solution was composed of DMSO, PBS, and Kolliphor EL (10% v/v). Chemotherapy cocktails were administered to mice twice weekly for four weeks.

SW1353 cells [1] = assay: Apoptosis analysis, Annexin-V/PI flow cytometry; format: cell-based, human; details: 10 μM TC-S7009 pretreatment 48 h and/or 5 μg/ml cisplatin 24 h
Procedure: Drug Interaction Studies. For analysis of combination index (CI), SW1353 cells were pretreated with vehicle, 10 μM Nutlin-3a, 10 μM ABT-888, or 10 μM TC-S7009 for 48 h and additionally treated with 0.2, 0.5, 1, 2, or 5 μg/ml cisplatin or left untreated for 72 h. Cell viability was measured by the MTT assay. CI was calculated using the Compusyn software version 1.0, and synergistic effects were determined by the Chou-Talalay method (Chou T C. Drug Combination Studies and Their Synergy Quantification Using the Chou-Talalay Method. Cancer Res. 2010; 70(2):440-446). Drug combination at a non-constant ratio was used to calculate CI. For apoptosis analysis, SW1353 cells were pretreated with vehicle, 10 μM Nutlin-3a, 10 μM ABT-888, or 10 μM TC-S7009 for 48 h and additionally treated with 5 μg/ml cisplatin for 24 h. Subsequently, cells were stained with the Annexin V-FITC Apoptosis Detection Kit (Sigma Aldrich, APOAF) according to manufacturer's protocol. Flow cytometry analysis was performed on a FACSCanto II flow cytometer (BD Biosciences).

SW1353 cells [2] = assay: Gelatin degradation assay; format: cell-based, human; details: 10 μM TC-S7009 vs DMSO
Procedure: Gelatin degradation assay. SW1353 cells were seeded on coverslips coated with Oregon Green 488-conjugated gelatin (Life Technologies) at 4×10^4 cells per well. Briefly, coverslips were treated with 50 μg/ml poly-D-Lysine (Corning) for 20 min followed by 0.5% glutaraldehyde (Junsei Chemical) for 15 min on ice. Treated coverslips were coated at 37° C. with pre-warmed 200 μg/ml Oregon Green 488-conjugated gelatin for 10 min in the dark, treated with 5 mg/ml NaBH4 for 15 min, and extensively washed with 70% ethanol and PBS. Cells were incubated for 18 h after seeding. For imaging gelatin degradation, cells were fixed with 50% methanol (v/v) and 10% acetic acid (v/v) solution for 10 min and stained with DAPI. For each coverslip, three fields were imaged at 20× magnification using a fluorescence microscope (EVOS FL Cell Imaging System, Thermo Fisher Scientific). To quantify gelatin degradation, the area of degradation in each field was measured by color-thresholding, using the ImageJ software.

SW1353 cells [3] = assay: Migration assay; format: cell-based, human; details: 10 μM TC-S7009 vs DMSO
Text: (§1) (A) SW1353 cells were co-transfected with pcDNA3 or pcDNA3-EPAS1 and the HRE containing reporter plasmid in the absence or presence of different doses of TC-S7009. HRE reporter activity was normalized to Renilla luciferase activity (n=5). (B) Trypan blue exclusion assay to test the effect of TC-S7009 on cell viability of SW1353 cells (n=3). (C) Colony formation assay of SW1353 cells in the absence or presence of different doses of TC-S7009. The number of colonies counted using the ImageJ software (n=5). (D) Migration assay performed using SW1353 cells treated with DMSO or 10 μM TC-S7009. Representative images are shown (Left), and the relative area of migration (Right) was determined using the Image-Pro Premier software (n=6). (Scale bar, 200 μm.) Values indicate the mean±SEM, ***P<0.001, N.S., not significant, ANOVA (A-C) and Student's t test (D). P values; N.S.=non-significant, ***P<0.001. HRE=hypoxia response element; P=P value.
Migration assay. SW1353 and OUMS-27 cells were cultured in a 6-well plate at a density of 5×10^5 cells per well. When cells achieved 90% confluence, a wound was made with a sterile yellow tip. Cells were washed with PBS three times and incubated in fresh media with 1% FBS for 36 h. Every 12 h, randomly selected fields were captured by a digital camera under a microscope.

SW1353 cells [4] = assay: Transwell invasion assay; format: cell-based, human; details: 10 μM TC-S7009 vs DMSO
Procedure: FIG. 5A is the results of Transwell invasion (n=3) assay using SW1353 cells treated with DMSO or 10 μM TC-S7009. Representative images were shown, the invaded cells were calculated on the random image fields and normalized to the cells treated with DMSO. Scale Bar=200 μm.
Transwell invasion assay. The invasion assay was performed using Transwell (BD Falcon, pore size, 8 μm, PET) in 24-well plates. Filters were coated with 20 μg of Geltrex (Thermo Fisher Scientific) in 20 μl of serum-free DMEM and dried for 4 h in a sterile environment. Prior to the invasion assay, SW1353 and OUMS-27 cells were starved for 12 h in serum-free DMEM. Immediately before seeding the cells, the dried transwells were rehydrated with 25 μl of serum-free DMEM for 1 h at 37° C. Starved cells were trypsinized, centrifuged, and resuspended in serum-free DMEM. Approximately 1×10^5 cells in 200 μl of serum-free DMEM were placed in each transwell and 2 ml of DMEM supplemented with 10% FBS was placed in each 24-well plate. The plates were incubated for 48 h at 37° C., fixed in 4% paraformaldehyde for 2 min, permeabilized in 100% methanol for 20 min, and stained with 0.1% crystal violet in 10% ethanol for 20 min. Cells on the upper side of the transwell were removed with cotton-tipped swabs. […] Image fields were randomly chosen, and invading cells were counted using the ImageJ software (National Institutes of Health).

SW1353 cells [5] = assay: Trypan blue exclusion assay (cell viability); format: cell-based, human
Text: as §1

SW1353 cells [6] = assay: Sphere formation assay; format: cell-based, human; details: 10 μM TC-S7009 vs DMSO
Procedure: FIG. 5C is the results of sphere formation (n=3) assays using SW1353 cells treated with DMSO or 10 μM TC-S7009 assay using SW1353 cells treated with DMSO or 10 μM TC-S7009. The representative images were shown and the diameter of the spheres were measured. Box-whisker plot were used to present the data. Scale Bar=200 μm.
Sphere formation assay. SW1353 and OUMS-27 cells were suspended in DMEM-F12 medium supplemented with 2% of B27 supplement (Thermo Fisher Scientific), 20 ng/ml EGF (Invitrogen), and 20 ng/ml basic fibroblast growth factor (bFGF; Peprotech). For experiments using SW1353 cells overexpressing eGFP or HIF-2α, cells were suspended in DMEM-F12 medium in the absence of the above supplements. Cells were then seeded in 24-well Ultra-low attachment plates (Corning) at a density of 1×10^4 cells per well. Four days later, fresh medium was added in each well. Seven days later, spheres were analyzed by the sphere diameter and the number of spheres larger than 50 μm (Axio Observer Z1, Zeiss). In relation to the diameter of the spheres, three representative fields per well were imaged, and diameters were measured using the AxioVision software (Zeiss): the three longest diameters per image field for each group were recorded. The distribution of the sphere diameters was plotted using the notched Box-and-Whisker plot originally invented by Tukey. […]

SW1353 cells [7] = assay: Colony formation assay; format: cell-based, human; details: 10 μM or different doses of TC-S7009 vs DMSO
Procedure: FIG. 5D is the results of colony formation (P<0.001, n=5) assays using SW1353 cells treated with DMSO or 10 μM TC-S7009 assay using SW1353 cells treated with DMSO or 10 μM TC-S7009. The representative images and quantification results were shown.
as §1
Colony formation assay. SW1353 cells were suspended in DMEM supplied with 10% FBS and seeded in 6-well plates; 1×10^3 and 500 cells were seeded in each well for the knockdown and overexpression experiments, respectively. […]

HIF-2α [8] = target: T1, HIF-2α (Homo sapiens, UniProt Q99814); assay: HRE reporter gene (luciferase) assay; format: cell-based; details: SW1353 cells co-transfected with pcDNA3-EPAS1 and HRE reporter; different doses of TC-S7009, 24 h
T1 construct: host or cells: SW1353 cells
T1 sequence (Q99814 whole entry): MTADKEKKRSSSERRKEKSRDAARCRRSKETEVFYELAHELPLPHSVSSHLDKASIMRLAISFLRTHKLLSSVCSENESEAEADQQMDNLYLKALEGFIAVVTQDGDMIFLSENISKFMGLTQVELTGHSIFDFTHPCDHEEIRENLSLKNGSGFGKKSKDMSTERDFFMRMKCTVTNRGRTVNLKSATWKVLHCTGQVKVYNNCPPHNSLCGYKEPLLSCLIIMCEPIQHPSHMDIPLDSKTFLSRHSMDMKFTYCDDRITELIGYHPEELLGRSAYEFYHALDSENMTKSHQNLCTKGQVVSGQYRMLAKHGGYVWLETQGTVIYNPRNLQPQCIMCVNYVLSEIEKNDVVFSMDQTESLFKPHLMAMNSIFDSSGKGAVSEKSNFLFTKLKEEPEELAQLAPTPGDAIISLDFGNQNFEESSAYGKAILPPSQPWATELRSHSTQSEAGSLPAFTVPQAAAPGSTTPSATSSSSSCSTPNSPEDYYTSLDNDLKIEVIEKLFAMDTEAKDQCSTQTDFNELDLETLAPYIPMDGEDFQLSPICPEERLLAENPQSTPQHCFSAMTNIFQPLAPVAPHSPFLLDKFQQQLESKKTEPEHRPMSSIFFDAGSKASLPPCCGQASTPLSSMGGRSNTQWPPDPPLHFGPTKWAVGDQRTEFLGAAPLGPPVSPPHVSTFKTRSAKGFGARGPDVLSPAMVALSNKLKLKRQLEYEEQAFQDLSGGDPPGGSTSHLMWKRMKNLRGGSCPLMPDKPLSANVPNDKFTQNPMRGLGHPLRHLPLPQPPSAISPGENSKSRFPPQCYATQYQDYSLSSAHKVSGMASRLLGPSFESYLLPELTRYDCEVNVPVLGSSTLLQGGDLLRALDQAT
Procedure: (A) SW1353 cells were co-transfected with pcDNA3 or pcDNA3-EPAS1 and the HRE containing reporter plasmid in the absence or presence of different doses of TC-S7009. HRE reporter activity was normalized to Renilla luciferase activity (n=5). […] (Scale bar, 200 μm.) Values indicate the mean±SEM, ***P<0.001, N.S., not significant, ANOVA (A-C) and Student's t test (D).
Luciferase assay. HIF-2α activity was determined by reporter gene assay. SW1353 cells were transfected with 1 μg of a reporter vector containing hypoxia responsive element repeats. The thymidine kinase promoter-Renilla luciferase reporter plasmid (pRL-TK) was used as a control for measuring transfection efficiency. […] Twenty-four hours after transfection, cells were treated with TC-S7009 for an additional 24 h. Luciferase activity was measured using luciferin and normalized by Renilla luciferase activity.

HIF-2α [9] = assay: siRNA knockdown of HIF-2α in SW1353 cells; format: cell-based, human; details: SW1353 cells transfected with siRNA
Procedure: Cell culture. Chondrosarcoma cell lines SW1353 and OUMS-27 were purchased from ATCC and JCRB Cell Bank, respectively, maintained in 3% O2 at 37° C., and cultured in DMEM (WelGENE Inc., LM001-05) supplemented with 10% FBS (Gibco, 26140079) and 1% antibiotics. For the selection of stable cell lines, 1×10^3 cells were seeded in 100 mm dishes and incubated for approximately two weeks until colonies became visible, and they were supplied with fresh media every three days. Visible colonies were individually isolated using cloning rings. Single colony-forming cells were trypsinized, seeded into 24-well plates, and gradually expanded to 100 mm dishes. Transfection was performed with METAFECTENE PRO (Biontex, T040) according to the manufacturer's protocol. All siRNAs were purchased from Bioneer. All cell lines were tested and authenticated using short-tandem repeat (STR) profiling by the Korean Cell Line Bank and were free of mycoplasma contamination. None of the cell line stocks used in this study was found in the database of commonly misidentified cell lines listed by ICLAC.
Microarray. SW1353 cells (3×10^5) were transfected with control, HIF1A, or EPAS1 siRNAs. Three biological replicates were used for each group. cDNA was synthesized using the GeneChip WT (Whole Transcript) Amplification kit as described by the manufacturer. […]

Row | Compound | extraosseous outgrowth of primary tumor (SW1353 tumors) | pulmonary (lung) metastasis (SW1353 tumors) | apoptotic cells (Annexin-V and PI positive populations) (SW1353 cells [1]) | matrix-degrading activity (gelatin degradation) (SW1353 cells [2]) | migration ability (SW1353 cells [3]) | invasive phenotypes (transwell invasion) (SW1353 cells [4]) | cytotoxicity / cell viability (SW1353 cells [5]) | sphere formation (SW1353 cells [6]) | clonogenicity (colony formation) (SW1353 cells [7]) | transcriptional activity of HIF-2α (HRE reporter activity) (HIF-2α [8]) | expression of HIF-2α at the cellular level (HIF-2α [9])
1 | N.N.[Cl][Pt][Cl] [Cisplatin, cisplatin] | mild-to-moderate reduction | mild-to-moderate reduction | mild increase | – | – | – | – | – | – | – | –
2 | O=[N+]([O-])c1c(Nc2cc(F)cc(Cl)c2)ccc2nonc12 [TC-S7009, N-(3-Chloro-5-fluorophenyl)-4-nitro-2,1,3-benzoxadiazol-5-amine] | mild-to-moderate reduction | mild-to-moderate reduction | did not noticeably affect cell death | effectively blocked | without affecting | effectively blocked | without any apparent cytotoxicity; also recorded: without affecting | effectively blocked | effectively blocked | effectively abolished; also recorded: effectively blocks | –
3 | EPAS1 siRNA: siRNA for HIF-2α, sense and antisense SEQ ID Nos: 3 and 4 with dTdT overhang (sense ACUACGUCCUGAGUGAGAUDTDT; antisense AUCUCACUCAGGACGUAGUDTDT; dTdT overhangs, chemistry not fully specified) | – | – | – | – | – | – | – | – | – | – | effectively suppress

Source: patent US11679099B2, “Use of HIF-2α inhibitors for treating chondrosarcoma, or preventing recurrence and metastasis thereof” (SEOUL NATIONAL UNIVERSITY R&DB FOUNDATION, priority 2020, dated 2023)
